Measurements reported in publication PMC12010006, “Subnanomolar MAS-related G protein-coupled receptor-X2/B2 antagonists with efficacy in human mast cells and disease models” (Signal Transduction and Targeted Therapy, 2025).

Key:
MRGPRX2 [1] = target: T1, MRGPRX2 (Homo sapiens, UniProt Q96LB1); assay: β-hexosaminidase release, LAD2 cells; format: cell-based; details: versus SP (0.3 µM)
T1 sequence (Q96LB1 1-330): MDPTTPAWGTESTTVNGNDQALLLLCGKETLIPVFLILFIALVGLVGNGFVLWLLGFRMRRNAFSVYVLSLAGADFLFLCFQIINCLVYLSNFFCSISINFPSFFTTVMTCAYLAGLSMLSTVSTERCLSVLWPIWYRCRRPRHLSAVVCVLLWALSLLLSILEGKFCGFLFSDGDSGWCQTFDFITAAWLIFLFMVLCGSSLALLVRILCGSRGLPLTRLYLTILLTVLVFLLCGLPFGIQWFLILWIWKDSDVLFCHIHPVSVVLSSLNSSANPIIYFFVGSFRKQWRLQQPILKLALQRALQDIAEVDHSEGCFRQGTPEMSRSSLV
Description: PSB-172656 inhibited MRGPRX2-mediated Ca^2+ mobilization in LAD2 cells (see Supplementary Fig. S4).
Fig. 6 PSB-172656 inhibits MRGPRX2-mediated mast cell degranulation. a LAD2 cells were incubated with buffer (control) or various concentrations of MRGPRX2 antagonist PSB-172656, subsequently exposed to substance P (SP, 0.3 µM), and β-hexosaminidase release was measured. […] Data are expressed as means ± SEM of 3 biological replicates. Statistical significance was determined by one-way ANOVA (Tukey’s multiple comparisons), compared to the effect of SP in the absence of PSB-172656 (P-value*** < 0.001). b Potential cytotoxicity of PSB-172656 was determined in 3-[4,5-dimethylthiazol-2-yl]-2,5-diphenyl tetrazolium bromide (MTT) assays performed on LAD2 cells. Cells were treated with different concentrations of PSB-172656 for 24 h at 37 °C, and the optic density value was determined at 570 nm (the viability of untreated cells corresponds to 100% cell viability). […] Mean fluorescence intensity (MFI) levels of e CD107a and f CD63 are depicted. […] Degranulation is characterized by the release of β-hexosaminidase, expressed as a percentage of the total content. h Human skin MCs were incubated with different concentrations of PSB-172656 for 30 min followed by stimulation with CST-14 (1 µM). […]
Degranulation as determined by β-hexosaminidase release was performed as described previously.[66],[67] […]

MRGPRX2 [2] = target: T1, MRGPRX2; assay: Degranulation (β-hexosaminidase release), RBL-MRGPRX2 cells; format: cell-based
Description: (§1) Having a competitive MRGPRX2 antagonist with subnanomolar potency in hand, we next studied its effects on MCs. Activation of MRGPRX2, which is highly expressed in skin MCs, results in degranulation and histamine release.[19] We therefore investigated whether PSB-172656 inhibits MRGPRX2-mediated MC activation utilizing the rat MC line RBL-2H3 recombinantly expressing the human MRGPRX2 (designated RBL-MRGPRX2). These cells were treated with two different concentrations of PSB-172656 (100 nM and 300 nM), and then exposed to different MRGPRX2 agonists, namely C48/80 (0.3 µg/mL), SP (0.3 µM), and PAMP-12 (0.1 µM), respectively. Degranulation of the cells was assayed by β-hexosaminidase release measurements.
(§2) Fig. 5 PSB-172656 blocks MRGPRX2-induced mast cell degranulation without affecting IgE-mediated responses. a RBL-MRGPRX2 cells were incubated with control (vehicle) or preincubated with PSB-172656 (100 or 300 nM), followed by stimulation with C48/80 (0.3 µg/mL), substance P (SP; 0.3 µM), or PAMP-12 (0.1 µM), and β-hexosaminidase release was measured. RBL-MRGPRX2 cells were sensitized with monoclonal anti-dinitrophenyl antibody (DNP-specific IgE), and degranulation induced by 2,4-dinitrophenylated bovine serum albumin (DNP-BSA, 10 and 30 ng/mL) was measured without or after preincubation with PSB-172656 (0.1 and 0.3 µM). […] Data are expressed as means ± SEM of 3 biological replicates. Statistical significance was determined by two-way ANOVA (Tukey’s multiple comparisons)
Rat basophilic leukemia (RBL-2H3) cells that stably expressed the human MGPRGX2 (RBL-MRGPRX2) were grown in Dulbecco’s modified Eagle’s medium (DMEM) supplemented with 10% FBS, L-glutamine (2 mM), penicillin (100 IU/mL), and streptomycin (100 µg/mL).[42]
Degranulation as determined by β-hexosaminidase release was performed as described previously.[66],[67] Briefly, RBL-MRGPRX2 cells (5 × 10^4 cells/well) were seeded into 96-well cell culture plates. After 16 h, cells were treated with PSB-172656 or solvent for 5 min in HEPES buffer containing 0.1% bovine serum albumin (BSA), and then activated with MRGPRX2 agonist (C48/80, SP, PAMP-12, or LL-37) for 30 min at 37 °C. For measurement of total β-hexosaminidase content, unstimulated cells were lyzed by Triton X-100 (0.1%). Aliquots (20 µL) of supernatant were incubated with 20 µL of 1 mM 4-nitrophenyl-N-acetyl-β-D-glucosaminide (PNAG) for 1 h at 37°C. Finally, the reaction was stopped by adding 250 µL of 0.1 M Na2CO3/0.1 M NaHCO3 buffer, and absorbance was determined with a Versamax microplate spectrophotometer (Molecular Devices, San José, CA) at a wavelength of 405 nm. The degranulation was quantitated as a percentage of β-hexosaminidase release by dividing the β-hexosaminidase in the sample by the total enzyme content. To test the antigen response, RBL-MRGPRX2 (5 × 10^4 cells/well) cells were sensitized with DNP-specific mouse IgE (SPE-7; 1 µg/mL). After 16 h, cells were preincubated in the absence or presence of respective concentrations of PSB-172656 for 5 min, followed by the stimulation of antigen (DNP-BSA, 10 and 30 ng/mL), and the degranulation was measured as described above. For degranulation in LAD2 cells, 1 × 10^4 cells/well were seeded into 96-well cell culture plates, incubated with or without PSB-172656 for 5 min, then with the MRGPRX2 agonist SP for 30 min, and degranulation was measured similarly.

[3] = test system: IgE-mediated degranulation; assay: IgE-mediated degranulation (DNP-BSA) of RBL-MRGPRX2 cells sensitized with DNP-specific IgE; format: cell-based, rat; details: 0.1 and 0.3 µM; DNP-BSA 10 and 30 ng/mL
Description: as §1
as §2, with “Statistical significance was determined by two-way ANOVA (Tukey’s multiple comparisons)” left out

`CCc1c(C(C)C)[nH]c2nc3cc(F)c(F)cc3n2c1=O` [Compound 24, 3-ethyl-7,8-difluoro-2-isopropylbenzo[4,5]imidazo [1,2-a] pyrimidin-4(1H)-one] was tested, and the IC50 (MRGPRX2 [1]) was 5.26 nM, the “effect on MC degranulation in response to C48/80” value (MRGPRX2 [2]; 100 nM and 300 nM, C48/80 0.3 µg/mL) was “completely abolished” and the “effect on MC degranulation in response to PAMP-12” value (MRGPRX2 [2]; 100 nM and 300 nM, PAMP-12 0.1 µM) was “substantially inhibited”. The “effect on MC degranulation in response to SP” value (MRGPRX2 [2]; 100 nM and 300 nM, SP 0.3 µM) was “completely abolished”, the IC50 (MRGPRX2 [2]; versus C48/80 (0.3 µg/mL)) was 3.79 nM and the IC50 (MRGPRX2 [2]; versus LL-37 (3 µM)) was 8.12 nM. For the same compound, the IC50 (MRGPRX2 [2]; versus PAMP-12 (0.1 µM)) was 11.7 nM, the IC50 (MRGPRX2 [2]; versus SP (0.3 µM)) was 15.5 nM and the “effect on IgE-mediated degranulation induced by DNP-BSA” value [3] was “did not inhibit”.
